Active and inactive are the calls of the source. No cut-off for these calls is given here.
Columns and labels:
[1] = tested on: Gallus gallus; experiment: Effect on social seperation in chick anxiety-depression model assessed as attenuation of decline in distress vocalizations during depression-like phase at 5 mg/kg, ip 15 mins prior to behavioral testing measured after 45 to 60 mins; assay type: functional, organism-based; set-up: dose 5 mg/kg
[2] = tested on: Gallus gallus; experiment: Effect on social seperation in chick anxiety-depression model assessed as attenuation of decline in distress vocalizations during depression-like phase at 5 mg/kg, ip 15 mins prior to behavioral testing measured after 30 to 45 mins; assay type: functional, organism-based; set-up: dose 5 mg/kg
[3] = tested on: Gallus gallus; experiment: Effect on isolation-stressor in chick anxiety-depression model assessed as attenuation of decline in distress vocalizations during depression-like phase at 5 mg/kg, ip 15 mins prior to behavioral testing measured after 5 to 60 mins; assay type: functional, organism-based; set-up: dose 5 mg/kg
[4] = target: T1, 5-hydroxytryptamine receptor 3A (Homo sapiens, UniProt P46098); experiment: Displacement of [3H]GR65630 from human recombinant 5HT3 receptor expressed in HEKT cells; assay type: cell-based
T1 sequence (P46098 whole entry): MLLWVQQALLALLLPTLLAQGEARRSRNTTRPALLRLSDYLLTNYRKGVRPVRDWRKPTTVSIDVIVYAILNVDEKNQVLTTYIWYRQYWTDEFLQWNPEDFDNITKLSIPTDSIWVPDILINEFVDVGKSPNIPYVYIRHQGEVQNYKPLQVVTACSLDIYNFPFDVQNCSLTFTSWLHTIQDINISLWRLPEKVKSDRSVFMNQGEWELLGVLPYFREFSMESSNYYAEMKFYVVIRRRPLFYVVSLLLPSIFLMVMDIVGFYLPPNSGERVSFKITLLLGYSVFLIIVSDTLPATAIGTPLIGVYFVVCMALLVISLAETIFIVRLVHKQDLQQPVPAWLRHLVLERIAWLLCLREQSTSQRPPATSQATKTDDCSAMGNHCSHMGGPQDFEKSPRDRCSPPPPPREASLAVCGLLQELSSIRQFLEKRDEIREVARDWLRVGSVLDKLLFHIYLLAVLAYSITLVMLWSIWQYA

[5] = target: T2, 5-hydroxytryptamine receptor 2C (Homo sapiens, UniProt P28335); experiment: Displacement of [3H]mesulergine from human recombinant 5HT2C receptor expressed in Flp-IN HEK cells; assay type: cell-based, HEK293
T2 sequence (P28335 whole entry): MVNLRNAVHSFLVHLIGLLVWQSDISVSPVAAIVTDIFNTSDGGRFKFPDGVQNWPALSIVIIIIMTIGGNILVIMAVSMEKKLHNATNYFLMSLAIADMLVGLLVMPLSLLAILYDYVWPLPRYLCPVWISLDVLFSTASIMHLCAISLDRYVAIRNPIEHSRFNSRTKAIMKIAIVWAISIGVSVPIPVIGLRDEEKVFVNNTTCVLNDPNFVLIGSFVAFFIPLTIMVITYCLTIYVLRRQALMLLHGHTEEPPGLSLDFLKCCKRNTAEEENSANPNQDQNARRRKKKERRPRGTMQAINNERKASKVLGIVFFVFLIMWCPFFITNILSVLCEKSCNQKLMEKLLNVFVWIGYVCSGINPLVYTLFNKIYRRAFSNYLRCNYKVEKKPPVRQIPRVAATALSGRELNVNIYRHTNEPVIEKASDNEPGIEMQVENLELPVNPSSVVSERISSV

[6] = target: 5-hydroxytryptamine receptor 2B (Homo sapiens, UniProt P41595); experiment: Displacement of [3H]LSD from human recombinant 5HT2B receptor stably expressed in HEK cells; assay type: cell-based, HEK293
[7] = target: 5-hydroxytryptamine receptor 1E (Homo sapiens, UniProt P28566); experiment: Displacement of [3H]5-HT from human recombinant 5HT1E receptor stably expressed in HEK cells; assay type: cell-based, HEK293
[8] = target: 5-hydroxytryptamine receptor 1D (Homo sapiens, UniProt P28221); experiment: Displacement of [3H]5-CT from human recombinant 5HT1D receptor expressed in HEKT cells; assay type: cell-based
[9] = target: 5-hydroxytryptamine receptor 1B (Homo sapiens, UniProt P28222); experiment: Displacement of [3H]5-CT from human recombinant 5HT1B receptor stably expressed in HEK cells; assay type: cell-based, HEK293
[10] = target: T3, 5-hydroxytryptamine receptor 1A (Homo sapiens, UniProt P08908); experiment: Displacement of [3H]way100635 from human recombinant 5HT1A receptor stably expressed in CHO cells; assay type: cell-based
T3 sequence (P08908 whole entry): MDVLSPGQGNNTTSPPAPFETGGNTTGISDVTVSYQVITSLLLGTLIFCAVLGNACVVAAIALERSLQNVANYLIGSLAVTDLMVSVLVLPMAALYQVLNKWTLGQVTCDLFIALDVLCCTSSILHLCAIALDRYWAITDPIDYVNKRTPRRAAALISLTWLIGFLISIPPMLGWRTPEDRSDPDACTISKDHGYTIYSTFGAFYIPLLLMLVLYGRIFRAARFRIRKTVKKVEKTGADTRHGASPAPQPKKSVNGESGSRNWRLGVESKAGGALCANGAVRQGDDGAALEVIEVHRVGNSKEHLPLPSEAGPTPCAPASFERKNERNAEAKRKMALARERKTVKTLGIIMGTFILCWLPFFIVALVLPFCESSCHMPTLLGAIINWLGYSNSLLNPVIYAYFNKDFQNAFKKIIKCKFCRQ

[11] = target: 5-hydroxytryptamine receptor 6 (Homo sapiens, UniProt P50406); experiment: Displacement of [3H]LSD from human recombinant 5HT6 receptor stably expressed in HEK cells; assay type: cell-based, HEK293
[12] = target: 5-hydroxytryptamine receptor 5A (Homo sapiens, UniProt P47898); experiment: Displacement of [3H]LSD from human recombinant 5HT5A receptor expressed in Flp-In CHO cells; assay type: cell-based
[13] = target: 5-hydroxytryptamine receptor 2A (Rattus norvegicus, UniProt P14842); experiment: Displacement of [3H]ketanserin from rat 5HT2A receptor stably expressed in 3T3 cells; assay type: cell-based
[14] = tested on: Gallus gallus; experiment: Effect on social seperation in chick anxiety-depression model assessed as attenuation of decline in distress vocalizations during depression-like phase at 30 nM/kg, ip 15 mins prior to behavioral testing measured after 45 to 60 mins; assay type: functional, organism-based
[15] = tested on: Gallus gallus; experiment: Effect on social seperation in chick anxiety-depression model assessed as attenuation of decline in distress vocalizations during depression-like phase at 10 to 100 nM/kg, ip 15 mins prior to behavioral testing measured after 30 to 45 mins; assay type: functional, organism-based
[16] = tested on: Gallus gallus; experiment: Effect on social seperation in chick anxiety-depression model assessed as reduction in distress vocalizations during anxiety-like phase at 10 to 100 nM/kg, ip 15 mins prior to behavioral testing measured for 1 to 5 mins; assay type: functional, organism-based
[17] = tested on: Gallus gallus; experiment: Effect on isolation-stressor in chick anxiety-depression model assessed as attenuation of decline in distress vocalizations during depression-like phase at 30 nM/kg, ip 15 mins prior to behavioral testing measured after 5 to 60 mins; assay type: functional, organism-based
[18] = tested on: Gallus gallus; experiment: Effect on isolation-stressor in chick anxiety-depression model assessed as reduction in distress vocalizations during anxiety-like phase at 10 to 100 nM/kg, ip 15 mins prior to behavioral testing measured for 1 to 5 mins; assay type: functional, organism-based
[19] = target: 5-hydroxytryptamine receptor 7 (Homo sapiens, UniProt P34969); experiment: Displacement of [3H]LSD from human recombinant 5HT7 receptor stably expressed in HEK cells; assay type: cell-based, HEK293
Chain of 5-hydroxytryptamine receptor 7 (P34969 whole entry): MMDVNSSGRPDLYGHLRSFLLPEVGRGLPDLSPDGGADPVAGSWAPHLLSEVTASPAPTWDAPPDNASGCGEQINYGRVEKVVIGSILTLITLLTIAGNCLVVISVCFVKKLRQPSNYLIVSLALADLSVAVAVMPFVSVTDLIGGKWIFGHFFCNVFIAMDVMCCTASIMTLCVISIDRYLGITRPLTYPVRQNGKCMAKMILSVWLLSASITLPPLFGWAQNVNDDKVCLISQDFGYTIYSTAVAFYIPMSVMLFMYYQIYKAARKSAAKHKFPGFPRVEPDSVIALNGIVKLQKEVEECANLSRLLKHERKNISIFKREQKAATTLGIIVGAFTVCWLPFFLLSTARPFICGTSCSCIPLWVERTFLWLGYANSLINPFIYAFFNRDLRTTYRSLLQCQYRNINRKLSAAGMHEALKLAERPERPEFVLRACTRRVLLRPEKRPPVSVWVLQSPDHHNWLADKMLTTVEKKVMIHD

Chain of 5-hydroxytryptamine receptor 1B (P28222 whole entry): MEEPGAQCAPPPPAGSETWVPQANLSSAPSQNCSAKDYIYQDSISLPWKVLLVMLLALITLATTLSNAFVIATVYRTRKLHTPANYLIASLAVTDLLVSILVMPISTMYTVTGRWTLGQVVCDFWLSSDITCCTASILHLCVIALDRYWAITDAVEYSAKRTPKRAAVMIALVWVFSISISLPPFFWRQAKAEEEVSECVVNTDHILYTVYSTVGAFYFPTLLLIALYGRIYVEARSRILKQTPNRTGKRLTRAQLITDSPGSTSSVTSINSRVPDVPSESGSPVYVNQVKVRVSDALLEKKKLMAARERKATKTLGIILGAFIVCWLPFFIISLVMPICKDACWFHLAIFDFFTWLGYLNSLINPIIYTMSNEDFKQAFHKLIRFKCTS
Chain of 5-hydroxytryptamine receptor 2A (P14842 whole entry): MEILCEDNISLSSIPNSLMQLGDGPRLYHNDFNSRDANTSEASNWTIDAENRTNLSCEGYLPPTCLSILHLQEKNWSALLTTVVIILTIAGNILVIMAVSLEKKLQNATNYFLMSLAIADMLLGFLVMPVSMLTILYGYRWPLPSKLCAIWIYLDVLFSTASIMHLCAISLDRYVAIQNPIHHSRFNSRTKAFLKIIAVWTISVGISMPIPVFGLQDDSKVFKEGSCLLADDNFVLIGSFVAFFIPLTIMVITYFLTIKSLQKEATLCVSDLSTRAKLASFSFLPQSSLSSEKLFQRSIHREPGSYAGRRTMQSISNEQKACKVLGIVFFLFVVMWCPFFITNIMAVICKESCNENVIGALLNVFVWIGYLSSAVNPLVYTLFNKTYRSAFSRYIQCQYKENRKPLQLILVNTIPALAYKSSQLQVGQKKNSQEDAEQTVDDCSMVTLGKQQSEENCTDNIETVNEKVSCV
Chain of 5-hydroxytryptamine receptor 1D (P28221 whole entry): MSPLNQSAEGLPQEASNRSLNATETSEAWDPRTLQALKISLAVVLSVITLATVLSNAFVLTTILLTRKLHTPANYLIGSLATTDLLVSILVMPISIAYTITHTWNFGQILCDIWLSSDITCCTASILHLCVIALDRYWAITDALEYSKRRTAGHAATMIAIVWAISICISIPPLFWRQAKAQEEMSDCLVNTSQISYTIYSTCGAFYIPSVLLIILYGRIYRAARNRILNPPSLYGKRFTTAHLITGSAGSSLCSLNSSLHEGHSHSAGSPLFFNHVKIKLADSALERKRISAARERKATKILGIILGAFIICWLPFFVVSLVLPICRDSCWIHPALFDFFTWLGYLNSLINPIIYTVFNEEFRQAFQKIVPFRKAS
Chain of 5-hydroxytryptamine receptor 2B (P41595 whole entry): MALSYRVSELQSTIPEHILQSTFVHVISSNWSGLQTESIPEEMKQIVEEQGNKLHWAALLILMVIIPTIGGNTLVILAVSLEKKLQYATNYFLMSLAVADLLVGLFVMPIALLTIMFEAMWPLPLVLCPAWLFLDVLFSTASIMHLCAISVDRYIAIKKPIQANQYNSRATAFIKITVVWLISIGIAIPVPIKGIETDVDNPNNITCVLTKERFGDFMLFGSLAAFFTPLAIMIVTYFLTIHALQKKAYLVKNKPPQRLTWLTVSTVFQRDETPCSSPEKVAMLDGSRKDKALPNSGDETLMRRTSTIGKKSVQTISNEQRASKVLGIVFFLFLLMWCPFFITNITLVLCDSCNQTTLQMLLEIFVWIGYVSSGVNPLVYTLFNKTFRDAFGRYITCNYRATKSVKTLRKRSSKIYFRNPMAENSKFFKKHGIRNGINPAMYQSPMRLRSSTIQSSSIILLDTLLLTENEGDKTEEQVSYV
Chain of 5-hydroxytryptamine receptor 5A (P47898 whole entry): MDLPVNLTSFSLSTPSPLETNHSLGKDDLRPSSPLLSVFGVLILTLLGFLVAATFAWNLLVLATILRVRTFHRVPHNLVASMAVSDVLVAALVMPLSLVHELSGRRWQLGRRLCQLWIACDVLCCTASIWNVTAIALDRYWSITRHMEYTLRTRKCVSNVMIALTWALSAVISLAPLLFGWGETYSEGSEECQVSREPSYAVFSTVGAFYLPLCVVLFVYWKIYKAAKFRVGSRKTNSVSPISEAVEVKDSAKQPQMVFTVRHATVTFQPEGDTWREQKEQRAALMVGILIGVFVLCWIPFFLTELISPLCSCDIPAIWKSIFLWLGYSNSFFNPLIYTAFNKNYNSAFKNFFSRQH
Chain of 5-hydroxytryptamine receptor 6 (P50406 whole entry): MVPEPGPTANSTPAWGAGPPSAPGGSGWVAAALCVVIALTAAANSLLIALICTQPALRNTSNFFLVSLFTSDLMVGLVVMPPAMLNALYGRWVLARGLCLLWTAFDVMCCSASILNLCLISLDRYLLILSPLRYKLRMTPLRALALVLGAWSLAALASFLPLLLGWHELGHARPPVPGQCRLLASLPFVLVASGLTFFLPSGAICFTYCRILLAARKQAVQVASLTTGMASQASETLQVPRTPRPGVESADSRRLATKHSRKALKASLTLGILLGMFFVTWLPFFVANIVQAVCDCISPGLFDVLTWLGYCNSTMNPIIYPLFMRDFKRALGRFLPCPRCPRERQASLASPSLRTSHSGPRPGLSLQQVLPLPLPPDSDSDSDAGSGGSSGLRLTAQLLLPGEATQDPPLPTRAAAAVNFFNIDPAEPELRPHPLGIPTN
Chain of 5-hydroxytryptamine receptor 1E (P28566 whole entry): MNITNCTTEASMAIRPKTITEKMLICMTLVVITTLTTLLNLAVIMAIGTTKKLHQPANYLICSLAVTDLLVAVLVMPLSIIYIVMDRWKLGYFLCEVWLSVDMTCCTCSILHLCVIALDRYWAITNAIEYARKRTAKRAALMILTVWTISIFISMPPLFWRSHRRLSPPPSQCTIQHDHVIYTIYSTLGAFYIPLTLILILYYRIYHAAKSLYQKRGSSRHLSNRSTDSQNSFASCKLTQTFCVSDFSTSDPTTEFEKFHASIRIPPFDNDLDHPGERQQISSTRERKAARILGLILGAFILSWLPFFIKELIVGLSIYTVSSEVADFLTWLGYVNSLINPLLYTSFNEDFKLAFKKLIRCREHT

| SMILES | Ki [4] | Ki [5] | Ki [6] | Ki [7] | Ki [8] | Ki [9] | Ki [10] | Ki [11] | Ki [12] | Ki [13] | Ki [19] | Activity [1] | Activity [2] | Activity [3] | Activity [14] | Activity [15] | Activity [16] | Activity [17] | Activity [18] |
| --- | --- | --- | --- | --- | --- | --- | --- | --- | --- | --- | --- | --- | --- | --- | --- | --- | --- | --- | --- |
| CN(C)CCCN1c2ccccc2CCc2ccccc21 | – | – | – | – | – | – | – | – | – | – | – | Active | Active | Active | – | – | – | – | – |
| C/N=C1\NC(=O)/C(=C\c2c[nH]c3cccc(Br)c23)N1C | 5920 nM | 320 nM | 99 nM | – | > 10000 nM | > 10000 nM | 4610 nM | 1410 nM | 1450 nM | 662 nM | – | – | – | – | – | – | – | – | – |

Continued by falling Ki [5], values first:

| Ki [4] | Ki [5] | Ki [6] | Ki [7] | Ki [8] | Ki [9] | Ki [10] | Ki [11] | Ki [12] | Ki [13] | Ki [19] | SMILES | Activity [1] | Activity [2] | Activity [3] | Activity [14] | Activity [15] | Activity [16] | Activity [17] | Activity [18] |
| --- | --- | --- | --- | --- | --- | --- | --- | --- | --- | --- | --- | --- | --- | --- | --- | --- | --- | --- | --- |
| 1220 nM | 3010 nM | 349 nM | > 10000 nM | > 10000 nM | > 10000 nM | 1810 nM | – | – | – | – | CN1C(=N)N(C)/C(=C/c2c[nH]c3c(Br)cccc23)C1=O | – | – | – | – | – | – | – | – |
| 656 nM | 2760 nM | 589 nM | > 10000 nM | 6830 nM | > 10000 nM | 315 nM | – | 7830 nM | > 10000 nM | – | CN1C(=N)N(C)/C(=C/c2c[nH]c3cccc(Br)c23)C1=O | – | – | – | – | – | – | – | – |
| – | 35 nM | 51 nM | – | – | – | – | 742 nM | 89 nM | 58 nM | 512 nM | N=C1NC(=O)/C(=C\c2c[nH]c3ccc(Br)cc23)N1 | – | – | – | Active | inactive | Active | Active | inactive |
